# Data reported in the supplement of paper PMC11061612.
# What was measured:
# Assay in all cases: Bliss excess, mean over the matrix (fraction); higher = more synergy
# [1] = tested on: C3A (Hepatocellular Carcinoma)
# Outline: (§1)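 Cell lines grown in DMEM/F12 or RPMI with 10% FBS were plated in 1536-well plates and held 24 hours at 37°C, 5% CO2 before 72 hours of exposure to two-drug dose matrices, with DMSO typically at 0.2%. CellTiter-Glo 2.0 luminescence gave viability, which was converted to inhibition. Vehicle wells were set to 0 and blank wells to 1. Combination Emax is the second-highest inhibition in the matrix, and Bliss excess is the observed combination effect minus the expected EA + EB − EA·EB, where EA and EB are the single-agent effects.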
# [2] = tested on: 697 (B-Lymphoblastic Leukemia)
# Outline: as §1
# [3] = tested on: SK-N-FI (Neuroblastoma)
# Outline: as §1
# [4] = tested on: DOV13 (Ovarian Carcinoma)
# Outline: as §1
# [5] = tested on: SN12C (Kidney Carcinoma)
# Outline: as §1
# [6] = tested on: NCI-H1299 (Non-Small Cell Lung Carcinoma)
# Outline: as §1
# [7] = tested on: DSH1 (Bladder Carcinoma)
# Outline: as §1
# [8] = tested on: G-292-Clone-A141B1 (Osteosarcoma)
# Outline: as §1
# [9] = tested on: MFH-ino (Other Solid Carcinomas)
# Outline: as §1
# [10] = tested on: SW780 (Bladder Carcinoma)
# Outline: as §1
# [11] = tested on: KM-H2 (Hodgkin's Lymphoma)
# Outline: as §1
# [12] = tested on: NCI-H2595 (Mesothelioma)
# Outline: as §1
# [13] = tested on: EM-2 (Chronic Myelogenous Leukemia)
# Outline: as §1
# [14] = tested on: KARPAS-1106P (B-Cell Non-Hodgkin's Lymphoma)
# Outline: as §1
# [15] = tested on: DB (B-Cell Non-Hodgkin's Lymphoma)
# Outline: as §1
# [16] = tested on: RH-1 (Ewing's Sarcoma)
# Outline: as §1
# [17] = tested on: HPAC (Pancreatic Carcinoma)
# Outline: as §1
# [18] = tested on: NCI-H1781 (Lung Adenocarcinoma)
# Outline: as §1
# [19] = tested on: OCI-AML2 (Acute Myeloid Leukemia)
# Outline: as §1
# [20] = tested on: ES7 (Ewing's Sarcoma)
# Outline: as §1
Structure (SMILES),Bliss excess [1],Bliss excess [2],Bliss excess [3],Bliss excess [4],Bliss excess [5],Bliss excess [6],Bliss excess [7],Bliss excess [8],Bliss excess [9],Bliss excess [10],Bliss excess [11],Bliss excess [12],Bliss excess [13],Bliss excess [14],Bliss excess [15],Bliss excess [16],Bliss excess [17],Bliss excess [18],Bliss excess [19],Bliss excess [20]
"Cc1cc2ncnn2cc1Nc1ncc2c(n1)n(C1CCOCC1)c(=O)n2C [AZD7648] + CCN(CCO)CCCOc1ccc2c(Nc3cc(CC(=O)Nc4cccc(F)c4)[nH]n3)ncnc2c1 [AZD2811] (first compound max 10 µM, 7x7, partner max 1 µM)",0.0219,0.018,0.0094,-0.0551,-0.01,0.0093,0.0145,0.0147,-0.0094,-0.018,0.0507,0.0183,-0.073,0.0642,0.0438,-0.0385,-0.032,0.0239,-0.0004,-0.0538
"Cc1cc2ncnn2cc1Nc1ncc2c(n1)n(C1CCOCC1)c(=O)n2C [AZD7648] + CN(C)CCCOc1ccc(-c2ccc3ncc4c(c3c2)n(C2CCOCC2)c(=O)n4C)cn1 [AZD0156] (first compound max 10 µM, 7x7, partner max 1 µM)",-0.032,-0.0136,0.0029,-0.0169,-0.0388,0.0177,0.0171,-0.0261,-0.0299,-0.0069,0.0208,-0.0373,0.0183,0.0083,-0.0402,0.0087,-0.0025,0.0151,-0.022,0.0271
"Cc1cc2ncnn2cc1Nc1ncc2c(n1)n(C1CCOCC1)c(=O)n2C [AZD7648] + C[C@@H]1COCCN1C2=NC(=NC(=C2)C3(CC3)[S@](=N)(=O)C)C4=C5C=CNC5=NC=C4 [AZD6738] (first compound max 10 µM, 7x7, partner max 10 µM)",0.0722,-0.009,-0.005,-0.0039,0.0264,0.0116,-0.0234,0.0274,-0.0002,0.0476,0.0227,-0.0059,-0.0013,0.0183,-0.0509,-0.0016,0.0187,0.103,0.0045,0.074
"Cc1cc2ncnn2cc1Nc1ncc2c(n1)n(C1CCOCC1)c(=O)n2C [AZD7648] + O=C(c1cc(Cc2n[nH]c(=O)c3ccccc23)ccc1F)N1CCN(C(=O)C2CC2)CC1 [Olaparib] (first compound max 10 µM, 7x7, partner max 10 µM)",-0.0505,0.0076,-0.0292,-0.0556,-0.0469,-0.03,0.0328,-0.0855,-0.0705,-0.0289,-0.0127,-0.0258,0.0036,-0.0538,-0.0564,-0.0115,-0.0261,-0.0204,-0.0289,-0.0569
"NC1(C(=O)N[C@@H](CCO)c2ccc(Cl)cc2)CCN(c2ncnc3[nH]ccc23)CC1 [Capivasertib] + CC(=O)c1c(C)c2cnc(Nc3ccc(N4CCNCC4)cn3)nc2n(C2CCCC2)c1=O [Palbociclib] (first compound max 10 µM, 7x7, partner max 10 µM)",0.0164,-0.114,-0.0581,0.0055,-0.0265,0.0662,-0.0395,0.0166,-0.0353,-0.0119,0.0484,-0.0248,-0.0552,-0.0168,0.0453,-0.0427,0.0004,-0.0326,0.0134,0.0092
"NC1(C(=O)N[C@@H](CCO)c2ccc(Cl)cc2)CCN(c2ncnc3[nH]ccc23)CC1 [Capivasertib] + CC(C)n1c(=O)n(C)c2cnc3cc(F)c(-c4ccc(OCCCN5CCCCC5)nc4)cc3c21 [AZD1390] (first compound max 10 µM, 7x7, partner max 0.3 µM)",-0.0724,-0.0197,-0.0588,-0.0407,-0.0454,-0.0362,-0.0895,-0.0453,-0.0771,-0.0715,-0.0554,-0.0609,-0.0446,-0.0004,-0.0494,-0.0292,-0.0699,-0.0696,-0.0448,-0.0471
"NC1(C(=O)N[C@@H](CCO)c2ccc(Cl)cc2)CCN(c2ncnc3[nH]ccc23)CC1 [Capivasertib] + CCN(CCO)CCCOc1ccc2c(Nc3cc(CC(=O)Nc4cccc(F)c4)[nH]n3)ncnc2c1 [AZD2811] (first compound max 10 µM, 7x7, partner max 1 µM)",-0.0156,-0.0593,-0.0265,-0.0392,-0.0536,0.0012,-0.0694,0.0116,-0.0542,0.015,-0.0195,-0.0718,-0.0463,0.0426,0.0338,0.0222,-0.049,-0.0433,0.0134,-0.0354
"NC1(C(=O)N[C@@H](CCO)c2ccc(Cl)cc2)CCN(c2ncnc3[nH]ccc23)CC1 [Capivasertib] + COc1nnc2ccc(N3CCC(c4ccc(OCCN5CCN(C)C(=O)[C@H]5C)cc4)CC3)nn12 [AZD5153] (first compound max 10 µM, 7x7, partner max 1 µM)",0.0515,-0.065,-0.0019,-0.0489,-0.0155,0.0174,-0.0394,0.0249,0.0006,0.0042,0.0144,-0.0072,0.0043,0.0728,-0.0003,0.0517,0.0657,0.0513,0.0068,0.104
"NC1(C(=O)N[C@@H](CCO)c2ccc(Cl)cc2)CCN(c2ncnc3[nH]ccc23)CC1 [Capivasertib] + C[C@@H]1COCCN1C2=NC(=NC(=C2)C3(CC3)[S@](=N)(=O)C)C4=C5C=CNC5=NC=C4 [AZD6738] (first compound max 10 µM, 7x7, partner max 10 µM)",-0.0096,-0.0173,-0.0529,-0.062,-0.0044,-0.0309,-0.064,-0.0276,-0.086,-0.0216,-0.0181,-0.0114,-0.0512,-0.0661,-0.0769,-0.0098,-0.0425,-0.032,-0.0474,-0.055
"NC1(C(=O)N[C@@H](CCO)c2ccc(Cl)cc2)CCN(c2ncnc3[nH]ccc23)CC1 [Capivasertib] + Cn1cnc2c(F)c(Nc3ccc(Br)cc3Cl)c(C(=O)NOCCO)cc21 [Selumetinib] (first compound max 10 µM, 7x7, partner max 10 µM)",-0.0208,-0.165,-0.0313,-0.0314,0.0041,0.0153,0.121,-0.0056,-0.0205,0.0066,-0.0084,-0.0454,0.0766,0.0759,-0.0093,0.0148,0.0152,0.105,0.0547,0.0372
"COc1cccc2c1C(=O)c1c(O)c3c(c(O)c1C2=O)C[C@@](O)(C(=O)CO)C[C@@H]3O[C@H]1C[C@H](N)[C@H](O)[C@H](C)O1 [Doxorubicin] + Cc1cc2ncnn2cc1Nc1ncc2c(n1)n(C1CCOCC1)c(=O)n2C [AZD7648] (first compound max 1 µM, 7x7, partner max 10 µM)",-0.0065,0.101,-0.0158,0.0218,0.0191,0.0329,0.0268,-0.0023,0.0216,0.0082,0.116,0.0084,0.0536,0.0713,0.0888,0.163,0.0275,0.0578,0.0125,0.0997
"COc1cc2ncnc(Nc3ccc(F)c(Cl)c3)c2cc1OCCCN1CCOCC1 [Gefitinib] + CC(C)n1c(=O)n(C)c2cnc3cc(F)c(-c4ccc(OCCCN5CCCCC5)nc4)cc3c21 [AZD1390] (first compound max 10 µM, 7x7, partner max 0.3 µM)",-0.11,-0.0787,-0.0391,-0.1,-0.0255,-0.0561,-0.0351,-0.0548,-0.0761,-0.0642,-0.0312,-0.0596,-0.0507,-0.0393,0.0332,-0.0399,-0.0607,-0.0801,-0.041,-0.0916
"CS(=O)(=O)CCNCc1ccc(-c2ccc3ncnc(Nc4ccc(OCc5cccc(F)c5)c(Cl)c4)c3c2)o1 [Lapatinib] + C[C@@H](Oc1cc(-c2cnn(C3CCNCC3)c2)cnc1N)c1c(Cl)ccc(F)c1Cl [Crizotinib] (first compound max 10 µM, 7x7, partner max 10 µM)",-0.0963,0.0166,-0.0365,-0.0621,-0.017,-0.0677,0.0668,-0.0506,-0.0902,-0.0364,0.0018,-0.0198,-0.0062,-0.0483,-0.148,-0.0553,0.0358,-0.0715,-0.0813,-0.0214
"CC(=O)c1c(C)c2cnc(Nc3ccc(N4CCNCC4)cn3)nc2n(C2CCCC2)c1=O [Palbociclib] + CC1(C)CCC(CN2CCN(c3ccc(C(=O)NS(=O)(=O)c4ccc(NCC5CCOCC5)c([N+](=O)[O-])c4)c(Oc4cnc5[nH]ccc5c4)c3)CC2)=C(c2ccc(Cl)cc2)C1 [Venetoclax] (first compound max 10 µM, 7x7, partner max 1 µM)",0.0437,-0.0738,0.0104,0.0125,-0.0525,0.0231,-0.0361,-0.0368,-0.0576,-0.0395,-0.0011,-0.0557,0.0262,-0.0424,0.0187,0.0175,-0.0619,-0.045,0.0188,0.0277
"CC(=O)c1c(C)c2cnc(Nc3ccc(N4CCNCC4)cn3)nc2n(C2CCCC2)c1=O [Palbociclib] + Cc1c2c(nn1C)CSCc1cc(n(C)n1)CSc1cc(c3ccccc3c1)OCCCc1c(C(=O)O)n(C)c3c-2c(Cl)ccc13 [AZD5991] (first compound max 10 µM, 7x7, partner max 1 µM)",0.0027,-0.0709,-0.0412,-0.0567,-0.0358,0.0018,-0.0748,-0.0371,-0.042,-0.0441,-0.0228,-0.0622,-0.021,-0.0645,0.0577,-0.0722,-0.0423,-0.0608,0.004,-0.005
